# Results taken from ChEMBL document CHEMBL1201862, “PubChem BioAssay data set” (2004).
# Active and inactive are the calls of the source.
# Assays:
# [1] = molecular target: T1, Neuropeptide Y receptor type 1 (Homo sapiens, UniProt P25929); test: IC50 of human NPY-Y1 blockers – cell-based, dose response (AID 1277); format: functional
# T1 sequence (P25929 whole entry): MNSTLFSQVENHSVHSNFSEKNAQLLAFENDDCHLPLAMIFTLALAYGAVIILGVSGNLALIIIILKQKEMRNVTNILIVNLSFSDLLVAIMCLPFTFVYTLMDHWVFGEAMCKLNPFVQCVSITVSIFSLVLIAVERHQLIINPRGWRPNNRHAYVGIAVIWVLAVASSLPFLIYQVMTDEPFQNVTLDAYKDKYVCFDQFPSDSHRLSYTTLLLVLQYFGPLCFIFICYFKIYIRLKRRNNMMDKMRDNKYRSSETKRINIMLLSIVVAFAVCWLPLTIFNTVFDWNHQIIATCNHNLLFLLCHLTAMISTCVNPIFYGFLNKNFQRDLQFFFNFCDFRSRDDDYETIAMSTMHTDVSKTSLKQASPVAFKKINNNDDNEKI
# [2] = molecular target: T2, Neuropeptide Y receptor type 2 (Homo sapiens, UniProt P49146); test: IC50 for human NPY-Y2 blockade – cell-based, counter-screen for NPY-Y1 antagonist project, dose response (AID 1278); format: functional
# T2 sequence (P49146 whole entry): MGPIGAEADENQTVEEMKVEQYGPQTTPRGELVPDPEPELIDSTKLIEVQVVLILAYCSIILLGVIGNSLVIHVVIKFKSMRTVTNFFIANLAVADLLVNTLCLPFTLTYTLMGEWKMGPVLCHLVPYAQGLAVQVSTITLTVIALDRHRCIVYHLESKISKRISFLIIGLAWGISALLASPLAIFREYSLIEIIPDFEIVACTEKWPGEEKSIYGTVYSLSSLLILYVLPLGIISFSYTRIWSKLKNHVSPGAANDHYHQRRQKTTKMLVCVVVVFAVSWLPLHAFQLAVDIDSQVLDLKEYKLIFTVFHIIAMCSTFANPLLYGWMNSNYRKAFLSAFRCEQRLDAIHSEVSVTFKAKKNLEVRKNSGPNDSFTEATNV
# [3] = A Cell Based Secondary Assay To Explore Cytotoxicity of Compounds that Sensitize Mycobacterium Tuberculosis to Beta-Lactam Antibiotics.; format: functional
# [4] = M. tuberculosis H37Rv growth inhibitors, H37Rv strain (AID 1626); format: functional
# Cytochrome P450 3A4 = Cytochrome P450 3A4 (Homo sapiens, UniProt P08684); details: Potency;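 further: confirmatory qHTS run detecting inhibitors and substrates of CYP3A4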
# Cytochrome P450 2D6 = Cytochrome P450 2D6 (Homo sapiens, UniProt P10635); test: qHTS Assay for Inhibitors and Substrates of Cytochrome P450 2D6. [Related pubchem assays: 410 ]; format: ADME; details: read-out: Potency
# [5] = molecular target: NAD-dependent protein deacylase sirtuin-5, mitochondrial (Homo sapiens, UniProt Q9NXA8); test: sirtuin-5 deacylation blockers, concentration series – biochemical, fluorescence imaging, cherry-pick, set 5, dose response (AID 720591);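 further: desuccinylation of succinyl peptide AMC substrate read as fluorescence after trypsin release; potency of inhibitors that lower fluorescence and may act on trypsin instead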
# [6] = molecular target: Intestinal-type alkaline phosphatase (Mus musculus, UniProt P24822); test: PubChem AID 488785; format: functional
# [7] = molecular target: T3, Histone-lysine N-methyltransferase NSD2 (Homo sapiens, UniProt O96028); format: biochemical
# T3 sequence (O96028 whole entry): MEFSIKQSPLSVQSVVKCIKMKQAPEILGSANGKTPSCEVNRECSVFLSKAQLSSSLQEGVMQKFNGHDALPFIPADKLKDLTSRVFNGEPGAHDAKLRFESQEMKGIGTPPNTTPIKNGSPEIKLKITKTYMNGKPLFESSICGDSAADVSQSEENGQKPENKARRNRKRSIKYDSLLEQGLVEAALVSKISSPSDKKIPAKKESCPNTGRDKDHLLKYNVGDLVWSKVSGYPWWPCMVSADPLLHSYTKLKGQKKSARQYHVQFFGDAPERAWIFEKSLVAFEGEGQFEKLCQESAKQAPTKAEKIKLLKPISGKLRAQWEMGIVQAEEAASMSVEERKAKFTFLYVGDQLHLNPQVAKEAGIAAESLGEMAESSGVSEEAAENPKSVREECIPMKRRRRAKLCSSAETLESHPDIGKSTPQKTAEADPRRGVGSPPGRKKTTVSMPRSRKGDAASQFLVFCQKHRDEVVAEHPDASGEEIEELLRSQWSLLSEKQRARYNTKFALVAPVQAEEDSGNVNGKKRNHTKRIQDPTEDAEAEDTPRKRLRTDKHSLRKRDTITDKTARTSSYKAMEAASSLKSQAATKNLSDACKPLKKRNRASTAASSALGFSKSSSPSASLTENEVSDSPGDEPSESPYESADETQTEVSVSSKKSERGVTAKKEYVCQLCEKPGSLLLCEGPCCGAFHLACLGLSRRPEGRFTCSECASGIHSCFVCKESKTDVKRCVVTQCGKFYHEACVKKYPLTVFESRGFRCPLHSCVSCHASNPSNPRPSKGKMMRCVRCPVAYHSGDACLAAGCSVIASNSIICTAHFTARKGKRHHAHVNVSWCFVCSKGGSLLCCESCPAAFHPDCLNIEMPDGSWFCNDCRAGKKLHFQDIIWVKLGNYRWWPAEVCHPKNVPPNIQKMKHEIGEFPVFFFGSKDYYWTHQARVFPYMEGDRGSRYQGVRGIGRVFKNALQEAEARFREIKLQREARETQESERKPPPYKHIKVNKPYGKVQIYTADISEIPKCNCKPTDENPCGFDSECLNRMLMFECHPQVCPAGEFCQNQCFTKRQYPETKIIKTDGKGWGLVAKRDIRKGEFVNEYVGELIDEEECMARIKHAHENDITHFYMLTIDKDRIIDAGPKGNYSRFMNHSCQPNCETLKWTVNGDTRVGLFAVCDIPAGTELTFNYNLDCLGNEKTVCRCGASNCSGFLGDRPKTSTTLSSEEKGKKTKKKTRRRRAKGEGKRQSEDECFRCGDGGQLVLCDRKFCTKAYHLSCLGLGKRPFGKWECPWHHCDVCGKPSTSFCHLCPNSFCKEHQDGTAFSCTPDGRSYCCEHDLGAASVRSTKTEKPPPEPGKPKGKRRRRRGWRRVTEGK
# [8] = molecular target: Induced myeloid leukemia cell differentiation protein Mcl-1 (Homo sapiens, UniProt Q07820); test: blockers of MCL1 binding to BIM peptide – biochemical, fluorescence polarization, BIM-BH3 peptide, 1536-well, dose response (AID 2217)
# [9] = molecular target: Intestinal-type alkaline phosphatase (Homo sapiens, UniProt P09923); test: inhibition of human intestinal alkaline phosphatase – biochemical, dose response (AID 488876); format: functional
# Bcl-2-like protein 1 = Bcl-2-like protein 1 (Homo sapiens, UniProt Q07817); test: blockers of BCLXL peptide binding – biochemical, fluorescence polarization, 1536-well, selectivity assay for MCL1 inhibitor project, dose response (AID 2218)
# [10] = molecular target: T4, Alkaline phosphatase, tissue-nonspecific isozyme (Homo sapiens, UniProt P05186); test: TNAP enzyme inhibition by screening hits, dose response, selectivity assay for mouse IAP inhibitor project, biochemical, human TNAP, uHTS hits (AID 488906); format: functional
# T4 sequence (P05186 whole entry): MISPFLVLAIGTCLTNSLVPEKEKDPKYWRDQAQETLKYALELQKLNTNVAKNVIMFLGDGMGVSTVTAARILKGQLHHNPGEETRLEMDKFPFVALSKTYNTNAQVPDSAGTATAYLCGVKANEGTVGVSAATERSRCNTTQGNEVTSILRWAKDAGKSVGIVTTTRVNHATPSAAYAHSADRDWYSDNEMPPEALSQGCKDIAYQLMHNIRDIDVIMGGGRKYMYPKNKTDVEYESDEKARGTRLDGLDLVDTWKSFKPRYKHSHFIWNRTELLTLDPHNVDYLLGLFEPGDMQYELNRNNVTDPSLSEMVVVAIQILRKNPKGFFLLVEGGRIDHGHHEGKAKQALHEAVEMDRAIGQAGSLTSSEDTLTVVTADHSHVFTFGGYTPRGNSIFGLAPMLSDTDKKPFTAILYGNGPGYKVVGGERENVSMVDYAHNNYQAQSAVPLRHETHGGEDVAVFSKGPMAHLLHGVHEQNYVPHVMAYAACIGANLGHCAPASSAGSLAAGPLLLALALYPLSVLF
# Chain of Induced myeloid leukemia cell differentiation protein Mcl-1 (Q07820 whole entry): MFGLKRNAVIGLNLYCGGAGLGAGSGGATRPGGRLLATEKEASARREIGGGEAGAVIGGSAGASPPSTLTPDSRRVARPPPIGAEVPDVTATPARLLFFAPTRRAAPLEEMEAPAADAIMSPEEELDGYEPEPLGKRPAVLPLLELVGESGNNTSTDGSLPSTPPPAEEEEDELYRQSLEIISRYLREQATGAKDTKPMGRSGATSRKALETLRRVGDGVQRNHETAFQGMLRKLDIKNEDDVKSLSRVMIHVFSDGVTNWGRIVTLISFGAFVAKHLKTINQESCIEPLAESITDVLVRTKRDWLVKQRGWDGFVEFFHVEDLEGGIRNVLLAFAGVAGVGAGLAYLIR
# Chain of Cytochrome P450 2D6 (P10635 whole entry): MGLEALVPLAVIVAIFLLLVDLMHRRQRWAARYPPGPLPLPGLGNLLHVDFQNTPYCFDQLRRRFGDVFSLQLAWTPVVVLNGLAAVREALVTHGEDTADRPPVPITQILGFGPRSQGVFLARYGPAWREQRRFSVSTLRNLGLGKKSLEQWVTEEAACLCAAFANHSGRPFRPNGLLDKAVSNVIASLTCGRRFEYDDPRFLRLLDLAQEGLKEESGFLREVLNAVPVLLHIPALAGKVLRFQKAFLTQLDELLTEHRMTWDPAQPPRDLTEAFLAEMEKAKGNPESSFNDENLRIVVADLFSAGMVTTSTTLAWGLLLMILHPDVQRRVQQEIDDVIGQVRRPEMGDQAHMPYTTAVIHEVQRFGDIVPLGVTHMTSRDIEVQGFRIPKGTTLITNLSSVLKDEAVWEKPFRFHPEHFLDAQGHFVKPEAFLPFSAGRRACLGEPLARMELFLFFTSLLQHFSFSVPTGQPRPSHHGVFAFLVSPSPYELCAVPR
# Chain of NAD-dependent protein deacylase sirtuin-5, mitochondrial (Q9NXA8 whole entry): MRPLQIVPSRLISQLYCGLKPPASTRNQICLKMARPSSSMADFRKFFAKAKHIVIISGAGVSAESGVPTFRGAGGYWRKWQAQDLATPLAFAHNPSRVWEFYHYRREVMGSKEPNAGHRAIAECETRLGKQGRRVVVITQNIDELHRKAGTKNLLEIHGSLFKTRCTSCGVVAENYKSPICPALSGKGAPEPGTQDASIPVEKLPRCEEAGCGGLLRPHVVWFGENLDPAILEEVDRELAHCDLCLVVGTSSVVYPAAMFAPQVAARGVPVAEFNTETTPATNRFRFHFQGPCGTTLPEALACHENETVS
# Chain of Cytochrome P450 3A4 (P08684 whole entry): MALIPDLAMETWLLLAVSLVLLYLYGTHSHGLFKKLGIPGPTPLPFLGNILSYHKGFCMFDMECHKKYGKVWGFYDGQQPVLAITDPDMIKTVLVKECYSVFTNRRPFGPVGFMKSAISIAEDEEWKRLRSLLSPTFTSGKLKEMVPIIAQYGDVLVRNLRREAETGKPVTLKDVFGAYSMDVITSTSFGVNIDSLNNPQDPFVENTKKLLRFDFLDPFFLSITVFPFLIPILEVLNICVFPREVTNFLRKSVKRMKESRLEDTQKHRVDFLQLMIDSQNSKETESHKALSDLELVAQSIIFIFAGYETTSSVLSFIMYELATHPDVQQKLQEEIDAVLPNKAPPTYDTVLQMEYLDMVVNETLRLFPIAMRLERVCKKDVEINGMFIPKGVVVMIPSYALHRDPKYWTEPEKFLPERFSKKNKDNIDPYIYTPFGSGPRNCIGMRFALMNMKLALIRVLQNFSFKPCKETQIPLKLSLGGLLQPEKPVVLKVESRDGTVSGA
# Chain of Intestinal-type alkaline phosphatase (Homo sapiens, UniProt P09923) (P09923 whole entry): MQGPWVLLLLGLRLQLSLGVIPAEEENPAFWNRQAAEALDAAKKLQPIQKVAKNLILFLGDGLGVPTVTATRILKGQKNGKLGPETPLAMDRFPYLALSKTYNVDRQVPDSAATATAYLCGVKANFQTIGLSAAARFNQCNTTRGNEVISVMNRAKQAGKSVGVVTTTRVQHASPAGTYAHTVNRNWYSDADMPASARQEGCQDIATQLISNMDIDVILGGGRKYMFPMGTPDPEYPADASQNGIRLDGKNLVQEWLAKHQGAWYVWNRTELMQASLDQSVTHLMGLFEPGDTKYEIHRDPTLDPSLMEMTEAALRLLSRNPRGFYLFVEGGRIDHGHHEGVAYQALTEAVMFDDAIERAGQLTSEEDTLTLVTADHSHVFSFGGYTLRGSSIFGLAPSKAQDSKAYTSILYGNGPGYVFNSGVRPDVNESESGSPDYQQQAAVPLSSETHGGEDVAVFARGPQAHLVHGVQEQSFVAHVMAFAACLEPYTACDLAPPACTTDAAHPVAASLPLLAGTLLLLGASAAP
# Chain of Intestinal-type alkaline phosphatase (Mus musculus, UniProt P24822) (P24822 whole entry): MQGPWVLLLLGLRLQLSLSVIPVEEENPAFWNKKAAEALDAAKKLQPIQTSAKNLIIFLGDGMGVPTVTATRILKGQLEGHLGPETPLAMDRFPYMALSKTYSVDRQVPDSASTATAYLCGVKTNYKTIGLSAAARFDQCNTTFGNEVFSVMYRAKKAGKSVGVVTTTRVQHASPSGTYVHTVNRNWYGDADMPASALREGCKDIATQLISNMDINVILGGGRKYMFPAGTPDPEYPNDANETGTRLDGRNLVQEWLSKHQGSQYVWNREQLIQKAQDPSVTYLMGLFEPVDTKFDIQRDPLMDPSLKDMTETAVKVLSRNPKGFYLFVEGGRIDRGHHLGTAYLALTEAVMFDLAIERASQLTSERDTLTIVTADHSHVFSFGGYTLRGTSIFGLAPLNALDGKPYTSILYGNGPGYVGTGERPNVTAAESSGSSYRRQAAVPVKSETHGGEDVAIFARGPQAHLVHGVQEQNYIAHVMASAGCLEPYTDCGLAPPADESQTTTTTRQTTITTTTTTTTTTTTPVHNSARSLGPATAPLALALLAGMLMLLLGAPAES
# Chain of Bcl-2-like protein 1 (Q07817 whole entry): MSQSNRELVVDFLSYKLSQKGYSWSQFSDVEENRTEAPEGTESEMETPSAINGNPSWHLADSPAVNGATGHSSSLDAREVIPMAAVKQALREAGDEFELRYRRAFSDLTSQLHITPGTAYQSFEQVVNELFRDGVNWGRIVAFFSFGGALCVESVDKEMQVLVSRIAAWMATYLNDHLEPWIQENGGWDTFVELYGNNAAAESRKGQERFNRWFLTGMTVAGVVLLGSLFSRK
smiles,measurement,setting,value
CCOC(=O)C1(CCCc2ccccc2)CCN(C2CCSCC2)CC1,IC50,[1],16.7 µM (not active)
same,IC50,[2],> 35 µM (not active)
Sc1ncnc2scc(-c3ccc(Br)cc3)c12,CC50,[3],25.9 µM (active)
same,IC50,[4],> 100 µM (active)
CC(C)CN1CCc2nc(-c3ccccc3)c3c(c2C1)COC(C)C3 (stereo not given),AC50,Cytochrome P450 3A4,3.16 µM (inconclusive)
same,AC50,Cytochrome P450 2D6,3.16 µM (inconclusive)
CC(C)(C)NCc1cc(Br)ccc1OC1CCCC1,IC50,[1],7.43 µM (active)
same,IC50,[2],11.2 µM (not active)
N#Cc1c(SCC(=O)Nc2nncs2)sc2c(O)cc(=O)[nH]c12,AC50,[5],4.58 µM (active)
same,IC50,[6],2.3 µM (active)
same,AC50,[7],6.29 µM (active)
same,IC50,[8],25.3 µM (not active)
same,IC50,[9],> 100 µM (inactive)
same,IC50,Bcl-2-like protein 1,96.5 µM (not active)
same,IC50,[10],> 100 µM (inactive)
